# Results from patent publication US5677466A, “Labelled fibrinogen receptor antagonists, the use thereof and processes for preparing them” (Dr. Karl Thomae, GmbH, priority 1992, dated 1997).
# Test system: fibrinogen receptor
# Test: fibrinogen receptor binding test with ^3 H-BIBU 52 on human thrombocytes in plasma
# Conditions: in the presence of plasma, non-labelled BIBU 52 as competitor
# Protocol: The fibrinogen receptor binding test according to the invention was carried out, for example, using (3S,5S)-5-[(4'-amidino-4-biphenylyl)-oxymethyl]-3-carboxymethyl-pyrrolidin-2-one-[3-^3 H-4-biphenylyl][=^3 H-BIBU 52 ZW] as ligand in the following manner:
# A suspension of human thrombocytes in plasma is incubated with ^3 H-BIBU 52 and varying concentrations of the substance to be tested. The free and bound ligand is separated off by centrifuging and quantitatively determined by scintillation counting. The inhibition of the ^3 H-BIBU 52 binding by the test substance is determined from the measurements obtained.
# In order, for example, to measure the competition of binding of ^3 H-BIBU 52 by non-labelled BIBU 52, blood is taken from an anticubital vein and anticoagulated with trisodium citrate (final concentration 13 mM). The blood is centrifuged for 10 minutes at 170 ×g and the supernatant platelet-rich plasma (PRP) is removed. The remaining blood is sharply centrifuged once more in order to obtain plasma. The PRP is diluted with autologous plasma 1:10. […] 100 μl thereof are measured in order to determine the free ligand. The pellet is dissolved in 500 μl of 0.2N NaOH, 450 μl are mixed with 25 μl of 5N HCl and measured. The residual plasma remaining in the pellet is determined from the ^14 C-content and the bound ligand is determined from the ^3 H-measurement. […]
smiles,measurement,value
"N=C(N)c1ccc(-c2ccc(OC[C@@H]3C[C@@H](CC(=O)O)C(=O)N3)cc2)cc1 [BIBU 52, (3S,5S)-5-[(4'-amidino-4-biphenylyl)-oxymethyl]-3-carboxymethyl-pyrrolidin-2-one]",binding of tritiated BIBU 52 to human thrombocytes (FIG. 1),supression of binding
